Measurements as given in patent publication US7858644B2, “EP4 receptor antagonists” (Asterand UK Limited, priority 2003, dated 2010).

Legend:
human EP4 receptor = biological target: T1, human EP4 receptor (Homo sapiens, UniProt P35408); test: Binding ability to human EP4 receptor ([3H]PGE2 displacement); conditions: read-out: pKi EP4 (converted)
T1 construct: expressed in transfected cells
Method: (§1) Membranes were prepared from cells stably transfected with human EP receptor cDNA. In brief, cells were cultured to confluency, scraped from culture flasks, and centrifuged (800 g, 8 minutes, 4° C.). Cells were twice washed in ice cold homogenisation buffer containing 10 mMTris-HCl, 1 mM EDTA. 2Na, 250 mM sucrose, 1 mM PMSF, 0.3 mM indomethacin, pH 7.4, homogenised and re-centrifuged as before. The supernatant was stored on ice and pellets re-homogenised and re-spun. Supernatants were pooled and centrifuged at 40000 g, 10 minutes, 4° C. Resultant membrane pellets were stored at −80° C. until use.
(§2) Incubations were performed at suitable temperatures and for suitable times to allow equilibrium to be reached. Non-specific binding was determined in the presence of 10 uM PGE2. Bound and free radiolabel was separated by vacuum manifold filtration using appropriate wash buffers, and bound radiolabel was determined by scintillation counting. Constituents of each of the buffers are included in table 1 below.
(§3) This approach follows that set out in Kenakin, T. P., Pharmacologic analysis of drug receptor interaction. Raven Press, New York, 2nd edition.

human EP2 receptor = biological target: T2, human EP2 receptor (Homo sapiens, UniProt P43116); test: Binding ability to human EP2 receptor ([3H]PGE2 displacement); conditions: read-out: pKi EP2 (converted)
T2 construct: expressed in transfected cells
T2 sequence (P43116 whole entry): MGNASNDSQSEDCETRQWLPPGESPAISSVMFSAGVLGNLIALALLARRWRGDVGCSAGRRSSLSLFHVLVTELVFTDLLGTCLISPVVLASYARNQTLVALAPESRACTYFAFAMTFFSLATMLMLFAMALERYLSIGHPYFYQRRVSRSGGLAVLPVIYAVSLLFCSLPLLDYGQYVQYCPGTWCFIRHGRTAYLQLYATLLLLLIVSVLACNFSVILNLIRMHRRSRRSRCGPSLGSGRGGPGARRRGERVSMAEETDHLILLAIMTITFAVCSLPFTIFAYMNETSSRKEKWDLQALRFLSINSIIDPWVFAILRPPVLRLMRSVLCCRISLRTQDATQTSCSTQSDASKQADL
Method: as §1
as §2, with “For assay, membranes expressing human EP4, EP3, EP2 or EP1 receptors were incubated in Millipore (MHVBN45) plates containing assay buffer, radiolabelled [^3H]PGE2 and 0.1 to 10 000 nM concentrations of compounds. Incubations” for “Incubations”
as §3

human EP3 receptor = biological target: T3, human EP3 receptor (Homo sapiens, UniProt P43115); test: Binding ability to human EP3 receptor ([3H]PGE2 displacement); conditions: membranes from cells stably transfected with human EP receptor cDNA; [3H]PGE2 2.5 nM; Cheng-Prusoff from IC50; read-out: pKi EP3 (converted)
T3 construct: expressed in transfected cells
T3 sequence (P43115 1-390): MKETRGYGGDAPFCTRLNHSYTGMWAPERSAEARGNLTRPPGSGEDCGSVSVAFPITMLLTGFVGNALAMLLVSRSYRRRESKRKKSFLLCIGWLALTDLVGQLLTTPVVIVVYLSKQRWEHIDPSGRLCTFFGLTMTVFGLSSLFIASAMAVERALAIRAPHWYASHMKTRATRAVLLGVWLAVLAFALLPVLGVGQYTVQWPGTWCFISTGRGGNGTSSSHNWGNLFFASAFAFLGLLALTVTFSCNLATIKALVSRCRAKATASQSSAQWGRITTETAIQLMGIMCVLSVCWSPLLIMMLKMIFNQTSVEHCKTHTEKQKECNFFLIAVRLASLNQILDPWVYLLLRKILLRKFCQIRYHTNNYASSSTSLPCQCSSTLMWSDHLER
Method: as §1
as §2, with “For assay, membranes expressing human EP4, EP3, EP2 or EP1 receptors were incubated in Millipore (MHVBN45) plates containing assay buffer, radiolabelled [^3H]PGE2 and 0.1 to 10 000 nM concentrations of compounds. Incubations” for “Incubations”
as §3

T1 sequence (P35408 whole entry): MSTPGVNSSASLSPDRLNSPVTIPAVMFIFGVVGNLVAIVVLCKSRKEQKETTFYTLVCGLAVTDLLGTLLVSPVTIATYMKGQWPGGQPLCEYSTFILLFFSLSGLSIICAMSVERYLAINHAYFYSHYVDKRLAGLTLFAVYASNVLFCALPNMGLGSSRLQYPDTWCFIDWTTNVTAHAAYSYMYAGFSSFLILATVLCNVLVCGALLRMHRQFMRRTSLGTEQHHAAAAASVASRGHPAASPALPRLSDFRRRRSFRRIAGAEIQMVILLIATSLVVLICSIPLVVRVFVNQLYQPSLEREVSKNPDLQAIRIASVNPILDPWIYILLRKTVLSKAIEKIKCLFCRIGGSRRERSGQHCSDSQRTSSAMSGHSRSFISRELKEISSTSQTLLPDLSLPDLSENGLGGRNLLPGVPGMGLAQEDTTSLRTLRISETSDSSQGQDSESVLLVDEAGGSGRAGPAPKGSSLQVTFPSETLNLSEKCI

Ki (human EP4 receptor)	Ki (human EP2 receptor)	Ki (human EP3 receptor)	Compound
< 3.16 µM	> 3.16 µM	> 10 µM	O=C(O)c1cc(COc2ccc3c(c2)oc2ccccc23)c(C(F)(F)F)o1 [Compound 95, 4-(Dibenzofuran-3-yloxymethyl)-5-trifluoromethyl-furan-2-carboxylic acid]
< 3.16 µM	> 10 µM	> 10 µM	COc1ccc(-c2ccc(OCCc3cc(C(=O)O)oc3C)cc2)cc1 [Compound 73, 4-[2-(4′-Methoxy-biphenyl-4-yloxy)-ethyl]-5-methyl-furan-2-carboxylic acid]
< 0.1 µM			COc1ccc(-c2ccc(OCc3cc(S(=O)(=O)NC(=O)c4c(C)noc4C)oc3C)cc2)cc1 [Compound 69, 4-(4′-Methoxy-biphenyl-4-yloxymethyl)-5-methyl-furan-2-sulphonic acid (3,5-dimethyl-isoxazole-4-carbonyl)-amide]
	> 10 µM	> 10 µM	COc1cccc(-c2ccc(OCc3cc(C(=O)O)oc3C)cc2)c1 [Compound 116, 4-(3′-Methoxy-biphenyl-4-yloxymethyl)-5-methyl-furan-2-carboxylic acid]
	> 10 µM	> 10 µM	COc1ccc(-c2ccc(OCc3cc(C(=O)NS(C)(=O)=O)oc3C)cc2)cc1 [Compound 7, N-[4-(4′-Methoxy-biphenyl-4-yloxymethyl)-5-methyl-furan-2-carbonyl]-methanesulfonamide]
	> 10 µM	> 10 µM	Cc1ccccc1S(=O)(=O)NC(=O)c1cc(CNc2ccc(-c3ccccc3)cc2)c(C)o1 [Compound 162, N-[4-(Biphenyl-4-ylaminomethyl)-5-methyl-furan-2-carbonyl]-2-methyl-benzenesulfonamide]
	> 10 µM	> 10 µM	COc1ccc(-c2ccc(OCc3cc(C(=O)NS(=O)(=O)c4c(C)noc4C)oc3C)cc2)cc1 [Compound 9, 3,5-Dimethyl-isoxazole-4-sulfonic acid [4-(4′-methoxy-biphenyl-4-yloxymethyl)-5-methyl-furan-2-carbonyl]-amide]
	> 10 µM	> 10 µM	Cc1oc(C(=O)O)cc1COc1ccc(-c2ccc(OC(F)F)cc2)cc1 [Compound 129, 4-(4′-Difluoromethoxy-biphenyl-4-yloxymethyl)-5-methyl-furan-2-carboxylic acid]
	> 10 µM	> 10 µM	COc1ccc(-c2ccc(OCc3cc(C(=O)NS(=O)(=O)N(C)C)oc3C)cc2)cc1 [Compound 122, N-[4-(4′-Methoxy-biphenyl-4-yloxymethyl)-5-methyl-furan-2-carbonyl]-dimethylamino-sulphonamide]
	> 10 µM	> 10 µM	COc1ccccc1-c1ccc(OCc2cc(C(=O)O)oc2C)cc1 [Compound 126, 4-(2′-Methoxy-biphenyl-4-yloxymethyl)-5-methyl-furan-2-carboxylic acid]
	> 10 µM	> 10 µM	O=C(O)c1cc(COc2ccc(-c3ccccc3)cc2)c(C(F)(F)F)o1 [Compound 90, 4-(Biphenyl-4-yloxymethyl)-5-trifluoromethyl-furan-2-carboxylic acid]
	> 3.16 µM	> 10 µM	COc1ccc(-c2ccc(OCc3cc(C(=O)NS(=O)(=O)c4ccccc4)oc3C)cc2)cc1 [Compound 5, N-[4-(4′-Methoxy-biphenyl-4-yloxymethyl)-5-methyl-furan-2-carbonyl]-benzenesulfonamide]
	> 3.16 µM	> 10 µM	Cc1ccccc1S(=O)(=O)NC(=O)c1cc(CNc2ccc(-c3ccc(OC(F)F)cc3)cc2)c(C)o1 [Compound 173, N-{4-[(4′-Difluoromethoxy-biphenyl-4-ylamino)-methyl]-5-methyl-furan-2-carbonyl}-2-methyl-benzenesulphonamide]
	> 10 µM	> 10 µM	CCCS(=O)(=O)NC(=O)c1cc(COc2ccc(-c3ccc(OC)cc3)cc2)c(C)o1 [Compound 8, Propane-1-sulfonic acid [4-(4′-methoxy-biphenyl-4-yloxymethyl)-5-methyl-furan-2-carbonyl]-amide]
